A word on the AC50: it is the concentration at which the activity in the assay is half-maximal.

Results filed as inconclusive are left out. Calls of active or inactive are those of the source. How the calls were made is not given here.

For 36 compounds, AC50 results are on record in PubChem BioAssay AID449745 (Broad Institute, 2010).

The assay has as its target Zinc finger protein mex-5 (Caenorhabditis elegans) (UniProt Q9XUB2). The experiment in a line: retest of MEX-5 TCR-2 binding inhibitors, confirmation, biochemical, C. elegans, fluorescence polarization, dose retest (AID 449745).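 Further: potency is for blocking Mex-5 binding to labeled TCR2 RNA like unlabeled competitor.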 Conditions: Mex-5 / TCR-2 RNA binding. For orientation: In fluorescence polarisation assays a small probe gives low polarisation when free and higher when bound to something large.

Zinc finger protein mex-5 (Caenorhabditis elegans), sequence (Q9XUB2 whole entry, looked up): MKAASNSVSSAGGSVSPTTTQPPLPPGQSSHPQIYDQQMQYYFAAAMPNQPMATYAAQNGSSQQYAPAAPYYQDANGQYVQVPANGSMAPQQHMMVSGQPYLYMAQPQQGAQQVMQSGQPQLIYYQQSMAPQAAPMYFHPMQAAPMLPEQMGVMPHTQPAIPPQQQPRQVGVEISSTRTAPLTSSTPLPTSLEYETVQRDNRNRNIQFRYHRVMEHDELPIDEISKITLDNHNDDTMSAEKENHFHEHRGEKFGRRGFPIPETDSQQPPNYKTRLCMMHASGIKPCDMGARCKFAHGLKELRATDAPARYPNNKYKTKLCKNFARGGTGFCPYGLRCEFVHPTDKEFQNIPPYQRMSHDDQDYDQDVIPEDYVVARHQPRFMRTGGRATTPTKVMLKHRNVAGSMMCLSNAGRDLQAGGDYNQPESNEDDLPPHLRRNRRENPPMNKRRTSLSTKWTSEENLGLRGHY

As to `O=C(CN1C(=O)/C(=C/c2ccco2)SC1=S)Nc1ccc(C(=O)O)c(O)c1`, the AC50 is 24.5 µM.
Then `Cc1cccc2cc3c(N)c(C(=O)N4CCCc5ccccc54)sc3nc12`, with 19.9 µM; and `CCOC(=O)C1CCN(c2nc(N)c3c(N)nc(SCC(=O)O)cc3c2C#N)CC1`, with 20.1 µM; and `N#CC(C#N)=NNc1ccc(S(N)(=O)=O)cc1`, with 7.56 µM.
Take `O=c1cc[nH]c2c1ccc1c(=O)cc[nH]c12`: the AC50 was 25 µM.
As for `N#C/C(=C\c1cccs1)C(=O)Nc1ccccn1`, the AC50 was 32.6 µM.
Then `CCOC(=O)C1CCN(c2nc3ccccc3nc2C(C#N)C(=O)OC(C)C)CC1` (stereo unspecified), with > 38 µM (inactive); and `O=C(O)c1ccc(Cl)c2c1C1C=CCC1C(c1ccccn1)N2` (stereo unspecified), with 29 µM; and `O=C(N/N=C/c1c(O)n(C2CC2)c(=S)[nH]c1=O)c1ccccc1O`, with 27.5 µM.
Turning to `COc1ccc(N=C2S/C(=C\c3cc(C)n(C)c3C)C(=O)N2C)cc1`, the AC50 was > 38 µM (inactive).
Then `O=S(=O)(Nc1ccc(O)c(NS(=O)(=O)c2ccccc2)c1)c1ccccc1`, with 6.92 µM; and `CC1(C)CC(=O)C2=C(C1)OC(N)=C(C#N)C2c1ccccc1[N+](=O)[O-]` (stereo unspecified), with > 38 µM (inactive).
For the compound `CC1=NOC(=O)/C1=C/c1ccc2c(c1)OCO2`, the AC50 was > 38 µM (inactive).
In the case of `COc1ccccc1OCC(=O)NNC(=O)c1cnccn1`, the half-maximal activity concentration (AC50) was 35.3 µM.
On to `CCOC(=O)c1c(/N=C/c2ccc(OC)cc2O)sc2c1CCN(C)C2`, for which the AC50 is > 38 µM (inactive).
Then `Cc1cc(C)cc(NC(=O)N(C)Cc2ccccc2)c1`, with > 38 µM (inactive).
Then `Cc1ccc(/C=C2/NC(=O)N(Cc3ccccc3)C2=O)s1`, with > 38 µM (inactive); and `Oc1ccc(Br)cc1C=Nc1cccn2cc(-c3ccccc3)nc12`, with > 38 µM (inactive); and `CN1C(=O)C(=Cc2sc(=O)n(-c3ccccc3)c2N(C)C)C(=O)N(C)C1=O`, with > 38 µM (inactive).
Take `Cc1nnc(SCc2nc3sc4c(c3c(=O)[nH]2)CCCC4)n(N)c1=O`: the AC50 was > 38 µM (inactive).
To `O=c1[nH]c(-[n+]2ccccc2)c(/C=N/NC([S-])=Nc2ccccc2)s1` belongs 15.1 µM; to `CC1CC(=O)c2c(cc3c(-c4c(O)cc(O)c5c(O)c6c(cc45)OC(C)CC6=O)c(O)cc(O)c3c2O)O1` (stereo unspecified), 2.07 µM; to `O=C(N/N=C/c1cc2c(cc1Cl)OCO2)c1ccccn1`, > 38 µM (inactive).
To `Cc1cccc(-n2c(O)c(/C=N/Nc3nc4c(c(=O)n(C)c(=O)n4C)n3C)c(=O)[nH]c2=S)c1` belongs 7.45 µM.
For the compound `COc1ccc2cc(N=Cc3nc(-c4ccc(C)cc4)oc3O)cnc2c1`, the AC50 is > 38 µM (inactive).
On to `Cc1cc(=O)[nH]c(SCc2nc3ccc([N+](=O)[O-])cc3[nH]2)n1`, for which the AC50 was 16.6 µM.
To `O=C(Cc1c(O)c2ccccc2oc1=O)c1ccc(C(F)(F)F)cc1` belongs 37.5 µM; to `COc1cccc(/C(O)=C/c2nc3ccc(C(=O)NCCc4ccc(Cl)cc4)cc3[nH]c2=O)c1`, 23.3 µM; to `Cc1ccc(C2C(C(=O)c3cccs3)=C(O)C(=O)N2c2nnc(C)s2)cc1` (stereo unspecified), 2.43 µM.
With `CC(C)(C)OC(=O)NCCCC1=CC2=CC(=O)C(C)(O)C(=O)C2=CO1` (stereo unspecified), the half-maximal activity concentration (AC50) was 19.3 µM.
Then `CN1C(=O)/C(=C/c2ccco2)SC1=Nc1cccc(C(=O)O)c1`, with > 38 µM (inactive).
Then `O=c1[nH]c(/C=C/c2cccc3ccccc23)nc2ccccc12`, with > 38 µM (inactive); and `CCOc1ccc2nc(N3CCCN(C(=O)Nc4ccccc4C)CC3)c(C#N)cc2c1`, with 22.8 µM; and `Cc1ccc(N=C2NC(=O)/C(=C\c3ccc(C)s3)S2)cc1`, with > 38 µM (inactive).
Consider `CCN(CC)c1ccc2cc(S(=O)(=O)c3ccc(C)cc3)c(=O)oc2c1`, for which the AC50 is 11.5 µM.
In the case of `COc1ccc(/C=C/C(=O)N/C(=C\c2ccco2)C(=O)NCCc2nc3ccccc3[nH]2)cc1`, the AC50 was > 38 µM (inactive).
